Data: patent US9957236B2, “Selective inhibitors interfering with fibroblast growth factor receptor and FRS2 interaction for the prevention and treatment of cancer and other diseases” (LIMITED LIABILITY COMPANY “RUSSIAN PHARMACEUTICAL …, priority 2014, dated 2018)

Legend:
[1] = system: FGFR2; assay: Automated Western blotting of FGFR2 phosphorylation in Snu16 cells; type: cell-based; conditions: 100 mcg/ml, FGF-2 stimulation
Protocol: (§1) Stomach cancer cells Snu16 were sawn in 96-cavity plates with a size of 90 mcl/cavity. After 24 hours of incubation in a damped incubator at a temperature of 37 C, 5% CO2 and 95% air to cells were the tested dissolved agent described by formula VI in the volume of 100 mcg/ml, and then FGF-2 was added as a stimulator.
(§2) After the days of cultivation by the method of automated Western-blotting, the phosphorylation level of the following proteins: FGFR2, FRS2α, FRS2β, Shp2, Grb2 was studied in the cells. After another 24 hours of the cultivation, the cells were counted.

[2] = system: FRS2α and FRS2β; assay: Automated Western blotting of FRS2α and FRS2β phosphorylation in Snu16 cells; type: cell-based; conditions: FGF-2 stimulation
Protocol: as §1, §2

[3] = system: Shp2 and Grb2; assay: Automated Western blotting of Shp2 and Grb2 phosphorylation in Snu16 cells; type: cell-based; conditions: noted in some cells
Protocol: as §1, §2

[4] = system: Snu16 cells; assay: Proliferation of stomach cancer cells Snu16 (cell count); type: cell-based
Protocol: as §1, §2
After the next cultivation the number of the cells equaled between the groups, and also with the control (stimulation of FGF-2, without cultivation with the inhibitor). See the results in Table 1.

[5] = system: HUVEC; assay: Proliferation of endothelial cells HUVEC with FGF-2; type: cell-based; conditions: Homo sapiens, FGF-2 25 ng/ml, 96 hours, read-out: Cell growth suppression, IC50
Protocol: Endothelial cells HUVEC were sawn in 96-cavity plates and cultivate for 24 hours. After that, the following was added to the cells: • 1) inhibitor RPT835, or • 2) inhibitor described by Formula IX in this invention, or • 3) brivanib—multi-kinase inhibitor of FGFR/VEGFR, and also to all cells—FGF-2 in a concentration of 25 ng/ml.
The cells were cultivated for 96 hours in general and then were calculated.

[6] = target: T1, FRS2 (Homo sapiens, UniProt Q8WU20); assay: FRS2 phosphorylation in FGF-2-stimulated Snu16 cells (Western blotting); type: cell-based; set-up: endogenous in cells; host or cells: Snu16; conditions: FGF-2 stimulation
T1 sequence (Q8WU20 1-508): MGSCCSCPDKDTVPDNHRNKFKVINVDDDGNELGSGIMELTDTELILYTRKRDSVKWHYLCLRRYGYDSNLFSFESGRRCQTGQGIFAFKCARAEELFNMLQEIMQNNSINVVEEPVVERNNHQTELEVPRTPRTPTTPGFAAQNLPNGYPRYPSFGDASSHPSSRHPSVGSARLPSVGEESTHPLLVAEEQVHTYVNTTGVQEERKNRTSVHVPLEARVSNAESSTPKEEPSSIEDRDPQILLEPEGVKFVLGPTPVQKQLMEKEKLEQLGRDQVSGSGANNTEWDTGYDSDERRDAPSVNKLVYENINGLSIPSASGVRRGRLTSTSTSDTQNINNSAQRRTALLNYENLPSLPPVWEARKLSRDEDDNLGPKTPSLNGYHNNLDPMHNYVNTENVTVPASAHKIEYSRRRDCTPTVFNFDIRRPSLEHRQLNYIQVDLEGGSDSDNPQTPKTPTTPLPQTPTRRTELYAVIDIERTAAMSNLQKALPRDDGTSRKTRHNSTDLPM
Protocol: By way of chemical synthesis we received the specified compounds. Stomach cancer cells Snu16 expressing FGFR2 were cultivated according to the standard method. A part of the cells was left for negative control, FGF-2 was added to the other part (positive control). Therapeutic groups included: addition of the inhibitor according to formula V and subsequent stimulation of FGF-2, addition of the inhibitor according to formula IX and subsequent stimulation of FGF-2, addition of the inhibitor according to formula XI and subsequent stimulation of FGF-2. The Western-blotting method was used for assessment of the phosphorylation level of various kinases.

[7] = system: PI3K; assay: Western blotting of PI3K phosphorylation in HUVEC, Caki-1, KATO III cells; type: cell-based; conditions: P=0.017
Protocol: (§3) According to the procedure described above, the phosphorylation levels of type 1-3 fibroblast growth factor receptors, FRS2, and also phosphorylation levels of VEGFR1 and intracellular kinases PI3K, p44/42(MAPK), Akt, mTOR were analyzed by the Western-blotting method.
(§4) Endothelial cells HUVEC, human renal cell carcinoma of Caki-1 type, stomach cancer cells KATO III were used in the research. All the mentioned cells expressed various types of the mentioned receptors. Just like in Example 5, a part of the cells stimulated FGF-2 and/or VEGF-A, a part of the cells was cultivated with the inhibitor described by Formula VIII, a part of the cells left without stimulation and treatment.

[8] = target: FGFR2 (Homo sapiens, UniProt P21802); assay: Western blotting of FGFR2 phosphorylation in HUVEC, Caki-1, KATO III cells; type: cell-based
Sequence of FGFR2 (Homo sapiens, UniProt P21802) (P21802 22-821, species assumed): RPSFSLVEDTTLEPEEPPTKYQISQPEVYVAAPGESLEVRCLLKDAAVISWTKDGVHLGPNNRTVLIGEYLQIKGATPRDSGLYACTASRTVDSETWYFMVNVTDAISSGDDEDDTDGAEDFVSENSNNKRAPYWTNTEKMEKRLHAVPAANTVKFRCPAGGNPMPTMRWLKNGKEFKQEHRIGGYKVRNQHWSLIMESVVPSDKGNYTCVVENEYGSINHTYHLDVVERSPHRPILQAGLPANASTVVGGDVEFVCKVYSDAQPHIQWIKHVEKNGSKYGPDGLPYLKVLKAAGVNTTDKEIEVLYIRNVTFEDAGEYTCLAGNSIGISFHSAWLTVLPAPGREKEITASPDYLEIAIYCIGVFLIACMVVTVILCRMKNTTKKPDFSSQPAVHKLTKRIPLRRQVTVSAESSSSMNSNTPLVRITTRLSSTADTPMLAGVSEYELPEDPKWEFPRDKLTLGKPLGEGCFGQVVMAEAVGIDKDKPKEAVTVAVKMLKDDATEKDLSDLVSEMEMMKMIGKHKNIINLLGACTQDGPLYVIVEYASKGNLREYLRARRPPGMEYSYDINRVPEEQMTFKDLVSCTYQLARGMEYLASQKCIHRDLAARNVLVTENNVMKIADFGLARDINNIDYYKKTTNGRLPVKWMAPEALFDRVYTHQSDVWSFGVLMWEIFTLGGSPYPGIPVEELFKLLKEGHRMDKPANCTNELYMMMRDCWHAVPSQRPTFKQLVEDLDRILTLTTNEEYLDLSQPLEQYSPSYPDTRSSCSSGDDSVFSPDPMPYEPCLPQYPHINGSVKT
Protocol: as §3, §4

[9] = target: T2, FGFR3 (Homo sapiens, UniProt P22607); assay: Western blotting of FGFR3 phosphorylation in HUVEC, Caki-1, KATO III cells; type: cell-based
T2 construct: endogenous in cells; host or cells: HUVEC, Caki-1, KATO III
T2 sequence (P22607 23-806): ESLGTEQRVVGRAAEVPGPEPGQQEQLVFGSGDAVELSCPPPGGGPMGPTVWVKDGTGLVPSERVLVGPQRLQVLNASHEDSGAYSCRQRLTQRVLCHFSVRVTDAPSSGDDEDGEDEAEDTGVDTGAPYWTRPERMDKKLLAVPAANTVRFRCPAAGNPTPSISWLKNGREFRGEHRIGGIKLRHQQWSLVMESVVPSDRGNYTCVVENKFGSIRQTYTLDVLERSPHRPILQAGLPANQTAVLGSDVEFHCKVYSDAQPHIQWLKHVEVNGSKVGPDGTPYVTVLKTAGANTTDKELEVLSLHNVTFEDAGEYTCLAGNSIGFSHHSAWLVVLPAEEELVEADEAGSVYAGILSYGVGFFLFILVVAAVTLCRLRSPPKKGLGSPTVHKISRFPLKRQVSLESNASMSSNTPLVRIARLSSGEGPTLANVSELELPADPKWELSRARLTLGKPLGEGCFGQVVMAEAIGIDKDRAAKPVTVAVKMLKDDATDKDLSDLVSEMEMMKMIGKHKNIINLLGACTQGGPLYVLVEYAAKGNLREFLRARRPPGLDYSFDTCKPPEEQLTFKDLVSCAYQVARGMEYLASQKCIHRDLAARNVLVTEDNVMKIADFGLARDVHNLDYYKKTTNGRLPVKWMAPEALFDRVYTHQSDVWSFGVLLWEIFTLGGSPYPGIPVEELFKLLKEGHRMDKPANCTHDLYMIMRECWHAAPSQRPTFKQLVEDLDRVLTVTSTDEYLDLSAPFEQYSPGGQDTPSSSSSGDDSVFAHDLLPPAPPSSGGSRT
Protocol: as §3, §4

[10] = target: T3, VEGFR1 (Homo sapiens, UniProt P17948); assay: Western blotting of VEGFR1 phosphorylation in HUVEC, Caki-1, KATO III cells; type: cell-based
T3 construct: endogenous in cells; host or cells: HUVEC, Caki-1, KATO III
T3 sequence (P17948 27-1338): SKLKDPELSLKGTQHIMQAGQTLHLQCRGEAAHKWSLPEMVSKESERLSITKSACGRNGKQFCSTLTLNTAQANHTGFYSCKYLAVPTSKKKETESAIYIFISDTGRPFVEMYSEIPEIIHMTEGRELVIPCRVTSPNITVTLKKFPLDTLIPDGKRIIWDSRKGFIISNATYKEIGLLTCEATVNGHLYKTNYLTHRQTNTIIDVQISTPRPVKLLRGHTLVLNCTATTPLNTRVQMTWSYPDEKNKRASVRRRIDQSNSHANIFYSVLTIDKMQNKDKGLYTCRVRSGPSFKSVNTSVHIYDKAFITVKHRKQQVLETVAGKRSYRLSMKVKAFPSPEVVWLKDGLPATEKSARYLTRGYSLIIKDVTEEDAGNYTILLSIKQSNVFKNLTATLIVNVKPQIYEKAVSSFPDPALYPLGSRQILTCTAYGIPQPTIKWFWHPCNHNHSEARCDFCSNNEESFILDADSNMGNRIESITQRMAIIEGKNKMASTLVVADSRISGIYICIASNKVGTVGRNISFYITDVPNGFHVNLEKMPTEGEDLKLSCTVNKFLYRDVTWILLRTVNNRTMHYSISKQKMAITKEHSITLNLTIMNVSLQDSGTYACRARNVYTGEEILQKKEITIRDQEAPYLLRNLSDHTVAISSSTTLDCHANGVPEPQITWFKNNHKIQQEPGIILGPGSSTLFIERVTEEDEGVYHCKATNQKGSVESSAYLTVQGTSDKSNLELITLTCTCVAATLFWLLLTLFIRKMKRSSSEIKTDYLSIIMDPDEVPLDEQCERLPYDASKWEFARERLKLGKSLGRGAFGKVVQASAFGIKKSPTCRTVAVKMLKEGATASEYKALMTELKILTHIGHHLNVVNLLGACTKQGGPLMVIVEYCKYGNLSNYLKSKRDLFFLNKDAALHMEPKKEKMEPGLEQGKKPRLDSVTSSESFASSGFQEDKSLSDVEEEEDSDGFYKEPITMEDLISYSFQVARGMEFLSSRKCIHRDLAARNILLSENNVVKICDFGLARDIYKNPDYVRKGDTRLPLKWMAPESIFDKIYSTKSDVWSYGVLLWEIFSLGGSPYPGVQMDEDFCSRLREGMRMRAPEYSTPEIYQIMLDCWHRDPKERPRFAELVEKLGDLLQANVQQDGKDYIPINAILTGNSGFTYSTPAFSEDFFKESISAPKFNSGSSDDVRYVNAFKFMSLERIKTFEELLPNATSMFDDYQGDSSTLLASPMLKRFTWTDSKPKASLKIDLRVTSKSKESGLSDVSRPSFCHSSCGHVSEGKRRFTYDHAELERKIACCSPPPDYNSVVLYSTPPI
Protocol: as §3, §4

[11] = target: T4, FGFR1 (Homo sapiens, UniProt P11362); assay: Western blotting of FGFR1 phosphorylation in HUVEC, Caki-1, KATO III cells; type: cell-based
T4 construct: endogenous in cells; host or cells: HUVEC, Caki-1, KATO III
T4 sequence (P11362 22-822): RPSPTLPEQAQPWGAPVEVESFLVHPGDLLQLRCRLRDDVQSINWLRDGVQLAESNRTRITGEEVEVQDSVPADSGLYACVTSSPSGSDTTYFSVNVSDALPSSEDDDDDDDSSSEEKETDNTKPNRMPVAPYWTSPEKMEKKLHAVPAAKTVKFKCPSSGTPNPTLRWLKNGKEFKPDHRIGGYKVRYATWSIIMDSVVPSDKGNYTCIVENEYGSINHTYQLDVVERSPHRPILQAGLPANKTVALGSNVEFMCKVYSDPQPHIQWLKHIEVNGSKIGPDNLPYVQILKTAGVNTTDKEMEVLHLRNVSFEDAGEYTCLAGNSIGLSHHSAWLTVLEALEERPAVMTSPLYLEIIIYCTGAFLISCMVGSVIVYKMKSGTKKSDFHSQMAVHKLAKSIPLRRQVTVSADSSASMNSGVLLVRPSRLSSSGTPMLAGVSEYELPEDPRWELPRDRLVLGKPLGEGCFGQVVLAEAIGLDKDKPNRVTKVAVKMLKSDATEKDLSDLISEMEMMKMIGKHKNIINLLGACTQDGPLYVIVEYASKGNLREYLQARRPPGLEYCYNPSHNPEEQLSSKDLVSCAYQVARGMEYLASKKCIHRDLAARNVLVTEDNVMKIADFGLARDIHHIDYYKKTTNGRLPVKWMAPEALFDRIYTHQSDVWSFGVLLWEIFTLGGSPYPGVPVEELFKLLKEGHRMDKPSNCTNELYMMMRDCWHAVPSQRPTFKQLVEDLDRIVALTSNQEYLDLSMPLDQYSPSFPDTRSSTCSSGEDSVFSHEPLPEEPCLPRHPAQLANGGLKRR
Protocol: as §3, §4

[12] = system: p44/42(MAPK), Akt, mTOR; assay: Western blotting of other kinases in HUVEC, Caki-1, KATO III cells; type: cell-based
Protocol: as §3, §4

[13] = target: T1, FRS2; assay: Western blotting of FRS2 phosphorylation in HUVEC, Caki-1, KATO III cells; type: cell-based; set-up: endogenous in cells; conditions: P=0.001
Protocol: as §3, §4

[14] = system: collagen-induced arthritis; assay: Collagen-induced arthritis model; type: in vivo; conditions: mice, 100 mg/kg through a tube for 40 days
Protocol: Collagen-induced arthritis model was used in the research. Arthritic was induced in mice by intradermal injections of collagen of the II type combined with Freund's adjuvant. The mice were randomized into 2 groups of 5 animals in each one: • group 1: control, water through a tube for 40 days. • group 2: inhibitor described by formula III in this invention, 100 mg/kg, through a tube for 40 days. On the 40 day, the mice were subjected to euthanasia, the tissue was studied.

[15] = system: angiogenesis stimulated by bFGF; assay: Matrigel implant angiogenesis stimulated by bFGF; type: in vivo, mice; conditions: Matrigel implants in mice; intraperitoneally day 0, 3, 6; RPT835 15 mg/kg, Bevacizumab 10 mg/kg
Protocol: (§5) Eighteen hybrid mice of the 1 generation F1 (C57B1/6×DBA/2), males with a weight of 22-30 g are used in the research. The mice (nomenclature number M02.13.00011) were received from a branch of nursery “Stolbovaya”. The method described earlier was used in the experiment [Passaniti A., 1992]. The control and experiment groups had at least 3 mice. Aliquots (1,000 mcl) of Matrigel (BD Biosciences) containing heparin 60 conventional units/ml, VEGF (200 ng/ml, BD Biosciences) or bFGF (100 ng/ml, BD Biosciences) were prepared on ice. Matrigel containing heparin 60 conventional units/ml was used as negative control. Matrigel was injected in the mice subcutaneously into the side part of the back. After injection, Matrigel quickly forms single, hard gel-like implant. A weight of the inhibitor was dissolved in DMSO to concentration of 10^−2M. Aliquots were frozen down to −20° C. and unfrozen immediately before injection. Refreezing of the solution was not allowed. The tested and standard objects were administered intraperitoneally on the 0, 3 and 6 day of Matrigel impintation: Bevacizumab in a dose of 10 mg/kg and RPT835-15 mg/kg. Seven days after administration of Matrigel, the mice were put into sleep with diethyl ether to remove the implant. The implants were fixed for 24-36 hours in 10% neutral formalin and enclosed in paraffin for further histological research.

[16] = system: angiogenesis in the implants containing VEGF; assay: Matrigel implant angiogenesis stimulated by VEGF; type: in vivo; conditions: Matrigel implants in mice; 10 mg/kg intraperitoneally day 0, 3, 6; p<0.001
Protocol: as §5

Compound: Cc1cc(NNc2cc(C)c(-c3cccnc3)cc2NS(=O)(=O)c2cccc(C(=O)O)c2)c(NS(=O)(=O)c2cccc(C(=O)O)c2)cc1-c1cccnc1 [Inhibitor VI]
- phosphorylation of FGFR2 [1]: did not suppress
- IC50 [2]: < 10 nM
- suppression of phosphorylation of FRS2α and FRS2β [2]: 12 times
- suppression of Shp2 and Grb2 protein phosphorylation [3]: more than 10 times
- proliferation compared with control group ([4]; group with phosphorylation suppression of FRS2 and Shp2 and/or Grb2, P < 0.0001): suppression,
- proliferation compared with control group ([4]; group with phosphorylation suppression of FRS2 and without influence on phosphorylation of Shp2 and/or Grb2, P < 0.0001): suppression,

Compound: CC1C(=O)Nc2ccccc2N1C(=O)c1cccc(C(=O)O)c1 (stereo not drawn) [Inhibitor IX, 3-(2-methyl-3-oxo-1,2,3,4-tetrahydroquinoxalyne-1-carbonyl)benzoic acid]
- IC50 [5]: 32 nM
- transmission of the signal from FGFR to FRS2 [6]: interfere with transmission of the signal from FGFR to FRS2

Compound: O=C(O)c1cccc(Nc2cccc3ncccc23)c1 [Inhibitor XI, 3-(quinoline-5-ylamine)benzoic acid]
- transmission of the signal from FGFR to FRS2 [6]: interfere with transmission of the signal from FGFR to FRS2

Compound: O=C1CN(C(=O)c2cccc(C(=O)O)c2)c2ccccc2N1 [Inhibitor VIII, 3-(3-oxo-1,2,3,4-tetrahydroquinoxaline-1-carbonyl)benzoic acid]
- decrease of phosphorylation of PI3K [7]: 10 times
- decrease of phosphorylation of FGFR2 (weakly) [8]: 1.5 times
- decrease of phosphorylation of FGFR3 (weakly) [9]: 1.8 times
- decrease of phosphorylation of VEGFR1 (weakly) [10]: 2.3 times
- level of FGFR1 phosphorylation [11]: even increased
- influence on other kinases [12]: did not have influence on other kinases
- decrease of phosphorylation of FRS2 [13]: 14 times

Compound: Cc1cc([N+](=O)[O-])c(NS(=O)(=O)c2cccc(C(=O)O)c2)cc1-c1cncnc1 [Inhibitor III, 3-(N-(4-methyl-2-nitro-5-(pyrimidin-5-yl)phenyl)sulfamoyl)benzoic acid]
- tissue findings (infiltration) [14]: Only insignificant infiltration with single neutrophils

Compound: Cc1cc(N)c(NS(=O)(=O)c2cccc(C(=O)O)c2)cc1-c1cncnc1 [Inhibitor V, 3-(N-(2-amino-4-methyl-5-(pyrimidin-5-yl)phenyl)sulfamoyl)benzoic acid]
- transmission of the signal from FGFR to FRS2 [6]: interfere with transmission of the signal from FGFR to FRS2

Compound: Cc1cc2c(F)c(Oc3ncnn4cc(OC[C@@H](C)O)c(C)c34)ccc2[nH]1 [Brivanib, reference compound]
- IC50 [5]: 289 nM

Compound: Bevacizumab: standard object blocking VEGF-stimulated angiogenesis, 10 mg/kg [reference compound]
- angiogenesis stimulated by bFGF [15]: but not angiogenesis induced by bFGF
- angiogenesis in the implants containing VEGF [16]: completely blocked
